Twelve compounds from patent publication US20070249670A1, “Glycogen Phosphorylase Inhibitor Compounds and Pharmaceutical Compositions Thereof” (SMITHKLINE BEECHAM CORPORATION, priority 2004, published 2007) can be followed below.

Each structure is given as a SMILES string.

The assay has as its target T1, human liver glycogen phosphorylase a (HLGPa) (Homo sapiens, UniProt P06737).
T1 construct: creating a full-length cDNA fused at the 5′ end to codons for methionine-glycine-alanine-histidine; 6xHis tag (leader Met-Gly-Ala-His6-Gly-Gly) (N); made in house; host or cells: E. coli (bacterial expression plasmid pTXK1007LTev)
T1 sequence (P06737 2-847 limits assumed): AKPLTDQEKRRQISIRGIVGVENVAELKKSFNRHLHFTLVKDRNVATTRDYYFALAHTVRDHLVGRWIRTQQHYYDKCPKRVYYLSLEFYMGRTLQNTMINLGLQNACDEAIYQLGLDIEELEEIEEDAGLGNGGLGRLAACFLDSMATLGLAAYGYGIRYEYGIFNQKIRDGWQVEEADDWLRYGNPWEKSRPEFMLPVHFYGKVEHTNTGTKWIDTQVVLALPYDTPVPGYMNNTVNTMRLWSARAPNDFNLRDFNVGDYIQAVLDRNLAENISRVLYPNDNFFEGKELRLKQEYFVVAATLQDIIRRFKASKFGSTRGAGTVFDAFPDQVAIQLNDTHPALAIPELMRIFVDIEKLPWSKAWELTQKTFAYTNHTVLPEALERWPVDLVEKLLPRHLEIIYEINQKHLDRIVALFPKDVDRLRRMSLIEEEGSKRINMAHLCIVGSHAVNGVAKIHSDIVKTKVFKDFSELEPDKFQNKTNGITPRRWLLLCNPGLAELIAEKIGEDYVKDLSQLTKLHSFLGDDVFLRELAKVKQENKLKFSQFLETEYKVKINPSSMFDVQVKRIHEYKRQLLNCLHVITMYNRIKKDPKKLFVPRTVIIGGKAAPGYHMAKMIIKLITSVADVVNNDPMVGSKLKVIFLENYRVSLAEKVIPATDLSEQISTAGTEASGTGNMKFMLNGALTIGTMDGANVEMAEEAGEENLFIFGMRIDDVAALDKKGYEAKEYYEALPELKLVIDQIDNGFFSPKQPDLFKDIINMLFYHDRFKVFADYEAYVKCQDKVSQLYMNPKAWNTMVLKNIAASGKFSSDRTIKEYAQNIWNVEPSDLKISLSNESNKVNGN
As to the kind of experiment: Human liver glycogen phosphorylase a enzymatic activity assay (coupled, fluorescent resorufin readout, with and without 10 mM glucose). Conditions: human liver glycogen phosphorylase a enzymatic activity assay. Type of assay: biochemical.

Compound `COc1ccccc1-c1ccc(C(=O)N[C@H](C(=O)O)[C@@H](C)OC(C)(C)C)c(NC(=O)Nc2c(C)cc(C)cc2C)c1` [Example 524, O-(1,1-Dimethylethyl)-N-{[2′-(methyloxy)-3-({[(2,4,6-trimethylphenyl)amino]carbonyl}amino)-4-biphenylyl]carbonyl}-L-threonine] gave an IC50 of 11 nM. This counts as double-digit nanomolar. Under `Cc1cc(C)c(NC(=O)Nc2cc(-c3cc(F)cc(F)c3)ccc2C(=O)N[C@H](C(=O)O)[C@@H](C)OC(C)(C)C)c(C)c1` [Example 525, N-{[3′,5′-Difluoro-3-({[(2,4,6-trimethylphenyl)amino]carbonyl}amino)-4-biphenylyl]carbonyl}-O-(1,1-dimethylethyl)-L-threonine] stands 7 nM; under `Cc1cc(C)c(NC(=O)Nc2cc(-c3cc(F)cc(F)c3)ccc2C(=O)N[C@H](C(=O)O)C2CCCCC2)c(C)c1` [Example 526, (2S)-Cyclohexyl({[3′,5′-difluoro-3-({[(2,4,6-trimethylphenyl)amino]carbonyl}amino)-4-biphenylyl]carbonyl}amino)ethanoic acid], 5 nM. Compound `Cc1cc(C)c(NC(=O)Nc2cc(-c3ccc(F)cc3)ccc2C(=O)N[C@H](C(=O)O)[C@@H](C)OC(C)(C)C)c(C)c1` [Example 527, O-(1,1-Dimethylethyl)-N-{[4′-fluoro-3-({[(2,4,6-trimethylphenyl)amino]carbonyl}amino)-4-biphenylyl]carbonyl}-L-threonine] displayed a half-inhibitory concentration (IC50) of 3 nM.

In turn, `Cc1cc(C)c(NC(=O)Nc2cc(-c3ccccc3)ccc2C(=O)N[C@H](C(=O)O)[C@@H](C)OC(C)(C)C)c(C)c1` [Example 528, O-(1,1-Dimethylethyl)-N-{[3-({[(2,4,6-trimethylphenyl)amino]carbonyl}amino)-4-biphenylyl]carbonyl}-L-threonine] came in with an IC50 of 3 nM. Under `Cc1cc(C)c(NC(=O)Nc2cc(-c3ccccc3)ccc2C(=O)NC2(C(=O)O)CCCCCCC2)c(C)c1` [Example 529, 1-({[3-({[(2,4,6-Trimethylphenyl)amino]carbonyl}amino)-4-biphenylyl]carbonyl}amino)cyclooctanecarboxylic acid] stands 2 nM; under `Cc1cc(C2CC2)cc(C)c1NC(=O)Nc1cc(-c2cccc(F)c2)ccc1C(=O)N[C@H](C(=O)O)[C@@H](C)OC(C)(C)C` [Example 530, N-{[3-({[(4-Cyclopropyl-2,6-dimethylphenyl)amino]carbonyl}amino)-3′-fluoro-4-biphenylyl]carbonyl}-O-(1,1-dimethylethyl)-L-threonine], 21 nM. For `Cc1cc(C2CC2)cc(C)c1NC(=O)Nc1c(C(=O)N[C@H](C(=O)O)C2CCCCC2)ccc2ccccc12` [Example 531] the value was 19 nM; for `COc1ccc(-c2ccc(C(=O)N[C@H](C(=O)O)[C@@H](C)OC(C)(C)C)c(NC(=O)Nc3c(C)cc(C4CC4)cc3C)c2)cc1` [Example 532, N-{[3-({[(4-cyclopropyl-2,6-dimethylphenyl)amino]carbonyl}amino)-4′-(methyloxy)-4-biphenylyl]carbonyl}-O-(1,1-dimethylethyl)-L-threonine], 11 nM. Regarding `Cc1cc(C)c(NC(=O)Nc2cc(-c3ccc(Cl)cc3)sc2C(=O)NC2(C(=O)O)CCCCC2)c(C)c1` [Example 533, 1-({[5-(4-Chlorophenyl)-3-({[(2,4,6-trimethylphenyl)amino]carbonyl}amino)-2-thienyl]carbonyl}amino)cyclohexanecarboxylic acid], half-maximal inhibition (IC50) was put at 3 nM. `Cc1cc(C)c(NC(=O)Nc2cc(-c3ccc(F)c(F)c3)sc2C(=O)NC2(C(=O)O)CCCCC2)c(C)c1` [Example 534, 1-({[5-(3,4-difluorophenyl)-3-({[(2,4,6-trimethylphenyl)amino]carbonyl}amino)-2-thienyl]carbonyl}amino)cyclohexanecarboxylic acid] showed an IC50 of 104 nM. This IC50 is about 35-fold higher than that of the compound before. Under `Cc1cc(C)c(NC(=O)Nc2cc(-c3cc(F)c(F)c(F)c3)sc2C(=O)NC2(C(=O)O)CCCCC2)c(C)c1` [Example 535, 1-({[5-(3,4,5-trifluorophenyl)-3-({[(2,4,6-trimethylphenyl)amino]carbonyl}amino)-2-thienyl]carbonyl}amino) cyclohexanecarboxylic acid] stands 206 nM.

Broadly, the IC50 is the concentration needed to halve the response being measured. Lower therefore signals inhibition by little substance.
